Data published in publication PMC6659418 (Bioorganic & medicinal chemistry letters, 2017).
Each block holds one compound with its values, some of them ahead of it.

Key:
[1] = target: T1, hM4 (Homo sapiens, UniProt P08173); test: calcium mobilization assay, hM4/Gqi5 CHO cells, ACh EC80; assay type: cell-based; settings: for hM4 % ACh Min ±SEM: presence of ACh EC80
T1 sequence (P08173 1-479): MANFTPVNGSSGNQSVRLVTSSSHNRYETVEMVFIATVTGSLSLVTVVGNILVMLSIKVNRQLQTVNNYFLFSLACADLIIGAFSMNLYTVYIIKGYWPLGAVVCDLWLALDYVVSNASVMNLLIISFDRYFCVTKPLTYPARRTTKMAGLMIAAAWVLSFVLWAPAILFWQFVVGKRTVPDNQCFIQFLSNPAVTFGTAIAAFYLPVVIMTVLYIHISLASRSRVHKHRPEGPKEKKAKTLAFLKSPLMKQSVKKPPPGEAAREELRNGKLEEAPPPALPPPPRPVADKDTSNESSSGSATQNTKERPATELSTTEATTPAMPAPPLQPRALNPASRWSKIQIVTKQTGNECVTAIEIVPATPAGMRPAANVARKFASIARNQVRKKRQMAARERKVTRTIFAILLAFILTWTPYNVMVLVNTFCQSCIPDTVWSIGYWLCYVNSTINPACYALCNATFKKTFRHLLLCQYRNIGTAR

[2] = predicted hepatic clearance from microsomal intrinsic clearance, rat; assay type: in vitro ADME; settings: based on microsomal CLint
[3] = predicted hepatic clearance from microsomal intrinsic clearance, human; assay type: in vitro ADME; settings: based on microsomal CLint
[4] = metabolite identification in rat hepatic microsomes; assay type: in vitro ADME
[5] = metabolite identification in human hepatic microsomes; assay type: in vitro ADME
[6] = plasma protein binding; assay type: in vitro ADME
[7] = target: T2, hM1 (Homo sapiens, UniProt P11229); test: calcium mobilization assay, hM1 CHO cells, ACh EC80; assay type: cell-based
T2 sequence (P11229 1-460): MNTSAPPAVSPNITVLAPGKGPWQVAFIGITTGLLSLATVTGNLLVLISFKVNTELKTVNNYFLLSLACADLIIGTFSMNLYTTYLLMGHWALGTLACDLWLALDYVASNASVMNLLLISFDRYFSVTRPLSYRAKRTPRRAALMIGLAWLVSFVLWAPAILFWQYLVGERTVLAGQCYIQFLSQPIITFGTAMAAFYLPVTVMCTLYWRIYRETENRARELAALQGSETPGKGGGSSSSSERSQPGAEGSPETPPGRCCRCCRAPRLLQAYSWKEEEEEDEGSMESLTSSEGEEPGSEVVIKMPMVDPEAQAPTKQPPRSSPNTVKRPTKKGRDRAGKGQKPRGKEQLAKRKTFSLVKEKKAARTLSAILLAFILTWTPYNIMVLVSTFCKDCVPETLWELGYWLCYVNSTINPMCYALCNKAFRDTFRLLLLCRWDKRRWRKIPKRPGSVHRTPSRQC

[8] = target: T3, hM2 (Homo sapiens, UniProt P08172); test: calcium mobilization assay, hM2/Gqi5 CHO cells, ACh EC80; assay type: cell-based
T3 sequence (P08172 1-466): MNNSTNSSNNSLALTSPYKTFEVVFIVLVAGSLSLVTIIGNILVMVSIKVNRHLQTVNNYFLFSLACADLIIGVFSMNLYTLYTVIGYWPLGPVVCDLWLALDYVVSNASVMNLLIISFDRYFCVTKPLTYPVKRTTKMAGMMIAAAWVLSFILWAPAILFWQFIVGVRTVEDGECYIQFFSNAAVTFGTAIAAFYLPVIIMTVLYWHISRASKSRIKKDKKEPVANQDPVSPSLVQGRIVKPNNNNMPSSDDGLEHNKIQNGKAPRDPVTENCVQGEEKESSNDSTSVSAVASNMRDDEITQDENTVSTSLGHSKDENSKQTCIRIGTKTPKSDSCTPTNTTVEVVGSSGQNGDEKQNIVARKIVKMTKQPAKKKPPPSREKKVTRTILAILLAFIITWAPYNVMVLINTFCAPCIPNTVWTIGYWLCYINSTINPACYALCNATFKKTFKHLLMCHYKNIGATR

[9] = target: hM3 (Homo sapiens, UniProt P20309); test: calcium mobilization assay, hM3 CHO cells, ACh EC80; assay type: cell-based
[10] = target: T4, hM5 (Homo sapiens, UniProt P08912); test: calcium mobilization assay, hM5 CHO cells, ACh EC80; assay type: cell-based
T4 sequence (P08912 1-532): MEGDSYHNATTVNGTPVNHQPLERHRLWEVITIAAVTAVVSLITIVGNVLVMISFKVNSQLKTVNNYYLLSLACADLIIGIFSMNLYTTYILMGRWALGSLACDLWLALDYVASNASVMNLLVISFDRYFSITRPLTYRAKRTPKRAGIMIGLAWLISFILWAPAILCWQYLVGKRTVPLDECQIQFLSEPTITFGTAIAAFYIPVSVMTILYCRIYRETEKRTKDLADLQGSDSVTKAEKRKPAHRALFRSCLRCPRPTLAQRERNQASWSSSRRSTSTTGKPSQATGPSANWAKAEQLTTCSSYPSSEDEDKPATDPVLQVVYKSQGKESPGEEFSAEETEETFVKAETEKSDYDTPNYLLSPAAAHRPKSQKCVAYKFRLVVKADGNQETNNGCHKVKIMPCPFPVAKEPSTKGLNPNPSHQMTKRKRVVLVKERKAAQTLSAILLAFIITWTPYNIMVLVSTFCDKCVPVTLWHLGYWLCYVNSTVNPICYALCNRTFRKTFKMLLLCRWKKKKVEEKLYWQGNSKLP

[11] = target: T5, rM4 (Rattus norvegicus, UniProt P08485); test: activity at rat mAChRs, rM4; assay type: cell-based
T5 sequence (P08485 1-478): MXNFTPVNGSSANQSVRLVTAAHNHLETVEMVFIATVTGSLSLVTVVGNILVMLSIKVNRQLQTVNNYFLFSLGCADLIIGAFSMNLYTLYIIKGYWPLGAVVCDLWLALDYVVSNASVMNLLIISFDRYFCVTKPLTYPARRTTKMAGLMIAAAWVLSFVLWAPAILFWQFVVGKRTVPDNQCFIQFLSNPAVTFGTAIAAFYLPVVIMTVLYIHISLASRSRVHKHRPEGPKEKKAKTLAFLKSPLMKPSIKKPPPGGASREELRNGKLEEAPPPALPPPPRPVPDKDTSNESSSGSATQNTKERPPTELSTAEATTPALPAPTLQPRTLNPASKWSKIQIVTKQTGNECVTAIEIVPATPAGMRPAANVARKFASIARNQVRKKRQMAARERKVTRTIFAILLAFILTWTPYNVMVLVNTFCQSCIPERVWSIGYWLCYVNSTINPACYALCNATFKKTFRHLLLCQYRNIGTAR

hM3, sequence (P20309 whole entry): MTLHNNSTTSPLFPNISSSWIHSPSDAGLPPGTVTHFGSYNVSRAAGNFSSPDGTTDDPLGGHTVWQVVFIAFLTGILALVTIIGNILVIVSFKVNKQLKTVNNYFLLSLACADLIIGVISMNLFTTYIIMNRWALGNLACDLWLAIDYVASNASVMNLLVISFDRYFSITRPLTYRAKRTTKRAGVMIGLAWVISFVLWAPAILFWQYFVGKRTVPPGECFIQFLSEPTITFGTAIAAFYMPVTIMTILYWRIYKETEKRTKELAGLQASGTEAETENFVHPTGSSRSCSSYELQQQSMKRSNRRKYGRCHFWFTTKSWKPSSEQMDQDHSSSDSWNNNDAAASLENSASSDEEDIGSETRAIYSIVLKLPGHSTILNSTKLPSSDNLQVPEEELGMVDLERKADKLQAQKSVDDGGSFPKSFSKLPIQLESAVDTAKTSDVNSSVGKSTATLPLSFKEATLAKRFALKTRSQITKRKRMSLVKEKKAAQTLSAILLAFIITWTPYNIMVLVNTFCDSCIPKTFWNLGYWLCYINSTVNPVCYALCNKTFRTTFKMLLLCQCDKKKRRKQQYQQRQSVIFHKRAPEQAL

M4-preferring functional selectivity over other mAChRs ([1]; hM4 versus hM1, hM2, hM3, hM5): 2.7- to 16 fold
predicted hepatic clearance (CLhep), rat [2]: > 60 mL/min/kg
predicted hepatic clearance (CLhep), human [3]: > 20 mL/min/kg
parent remaining, rat microsomes [4]: very little parent remained
major peak (UV and extracted ion chromatograms), rat microsomes ([4]; oxidative metabolism of the piperidine moiety): metabolite F
NADPH-independent metabolism, rat microsomes ([4]; presence and absence of NADPH): no NADPH-independent metabolism
number of NADPH-dependent metabolites formed, human microsomes [5]: 8
parent remaining, human microsomes [5]: parent remained the major species
NADPH-independent metabolism, human microsomes ([5]; presence and absence of NADPH): no NADPH-independent metabolism
plasma protein binding [6]: high plasma protein binding
Structure (SMILES): C[C@H]1CCCCN1c1ccc(N2CCN(S(=O)(=O)c3ccccc3Cl)CC2)nn1 [Compound 6a]

hM4 activity [1]: weak
Structure (SMILES): C[C@H]1CCCCN1c1ccc(N2CCN(S(=O)(=O)c3ccccc3)CC2)nn1 [Compound 9c]

hM4 activity [1]: weak
Structure (SMILES): COc1ccccc1S(=O)(=O)N1CCN(c2ccc(N3CCCC[C@@H]3C)nn2)CC1 [Compound 9d]

hM4 activity [1]: essentially equipotent to 6a
Structure (SMILES): C[C@H]1CCCCN1c1ccc(N2CCN(S(=O)(=O)c3ccccc3C(F)(F)F)CC2)nn1 [Compound 9e]

fold more potent at hM4 than 3,4-dimethoxy analog 9j ([1]; 9i versus 9j): 10 fold
Structure (SMILES): C[C@H]1CCCCN1c1ccc(N2CCN(S(=O)(=O)c3ccc4c(c3)OCO4)CC2)nn1 [Compound 9i]

hM4 % ACh Min ±SEM [1]: 56 % ACh Min
Structure (SMILES): C[C@H]1COCCN1c1ccc(N2CCN(S(=O)(=O)c3ccccc3Cl)CC2)nn1 [Compound 14a]

hM4 % ACh Min ±SEM [1]: 63 % ACh Min
Structure (SMILES): C[C@H]1COCCN1c1ccc(N2CCN(S(=O)(=O)c3ccc4c(c3)OCO4)CC2)nn1 [Compound 14b]

hM4 % ACh Min ±SEM [1]: 66 % ACh Min
Structure (SMILES): Cc1noc(C)c1S(=O)(=O)N1CCN(c2ccc(N3CCOC[C@@H]3C)nn2)CC1 [Compound 14c]

fold loss in hM4 inhibitory activity relative to 6a [1]: 5- to 6 fold
Structure (SMILES): O=S(=O)(c1ccccc1Cl)N1CCN(c2ccc(N3CCCCC3)nn2)CC1 [Compound 14g]

mode of antagonism at human M1 [7]: potent full antagonist
mode of antagonism at human M2 [8]: potent full antagonist
mode of antagonism at human M3 [9]: weak, partial antagonism
mode of antagonism at human M5 [10]: weak, partial antagonism
rM4 % ACh Min [11]: 32±1 % ACh Min
IC50 ([11]; rM4 pIC50): 372 nM
predicted hepatic clearance (CLhep), rat [2]: 66.6 mL/min/kg
predicted hepatic clearance (CLhep), human [3]: 20 mL/min/kg
Structure (SMILES): Cc1noc(C)c1S(=O)(=O)N1CCN(c2ccc(N3CCCC(C)(C)C3)nn2)CC1 [Compound 14n, 4-[4-[6-(3,3-dimethyl-1-piperidyl)pyridazin-3-yl]piperazin-1-yl]sulfonyl-3,5-dimethyl-isoxazole]

hM4 % ACh Min ±SEM [1]: 51 % ACh Min
Structure (SMILES): O=C1CCCCN1c1ccc(N2CCN(S(=O)(=O)c3ccccc3Cl)CC2)nn1 [Compound 14o]
